Like-named read-outs stand apart in the source and are kept apart here.
What was measured:
[1] = system: ten selected renal cancer cell lines; assay: In vitro 2D assay, CellTiter-Blue Cell Viability Assay, whole panel; format: cell-based, human; details: for IC50: Homo sapiens, geometric mean of ten cell lines, 96 h treatment
Procedure: (§1) The objective of this study was to investigate the in-vitro anticancer activity of ketorolac. Antitumor activity was assessed in ten selected renal cancer cell lines by using the CellTiter-Blue Cell Viability Assay. The human renal cancer cell lines RXF 1183L, RXF 1220L, RXF 1781L, RXF 393L, RXF 486L, RXF 786-0, RXF A-498, RXF ACHN, RXF Caki-1 and RXF SN12C were used. RXF 1183L, RXF 1220L, RXF 1781L, RXF 393L and RXF 486L were established at Oncotest from the corresponding human patient-derived xenograft. The cell lines 786-0, A-498, Caki-1 and SN12C were purchased from NCI (National Cancer Institute, Bethesda, Md., USA). ACHN was purchased from ECACC (European Collection of Cell Cultures, Salisbury, UK). Authenticity of cell lines was confirmed at the DSMZ by STR (short tandem repeat) analysis, a PCR based DNA-fingerprinting methodology.
(§2) Cell lines were routinely passaged once or twice weekly and maintained in culture for up to 20 passages. All cells were grown at 37° C. in a humidified atmosphere with 5% CO2 in RPMI 1640 medium (25 mM HEPES, with L-glutamine, #FG1385, Biochrom, Berlin, Germany) supplemented with 10% (v/v) fetal calf serum (Sigma, Taufkirchen, Germany) and 0.1 mg/mL gentamicin (Life Technologies, Karlsruhe, Germany).
(§3) Ketorolac was dissolved at a concentration of 60 mM in cell culture media. Starting with this stock solution, dilutions were made using cell culture media resulting in final test concentrations of 12000, 7800, 6000, 4200, 3000, 1800, 600, 420, 180, 60 μM. Precipitation was not observed.
The CellTiter-Blue Cell Viability Assay was used according to manufacturer's instructions. Briefly, cells were harvested from exponential phase cultures, counted and plated in 96-well flat-bottom microtiter plates at a cell density of 4,000-12,000 cells/well depending on the cell line's growth rate. […] Following an incubation period of up to four hours, fluorescence (FU) was measured by using the Enspire Multimode Plate Reader (excitation λ=531 nm, emission λ=615 nm). […]

[2] = system: RXF 1183L; assay: In vitro 2D assay, CellTiter-Blue Cell Viability Assay; format: cell-based; details: Homo sapiens, 96 h treatment
Procedure: as §1, §2, §3
(§4) The CellTiter-Blue Cell Viability Assay was used according to manufacturer's instructions. Briefly, cells were harvested from exponential phase cultures, counted and plated in 96-well flat-bottom microtiter plates at a cell density of 4,000-12,000 cells/well depending on the cell line's growth rate. After a 24 h recovery period to allow the cells to resume exponential growth, ketorolac was applied at 8 to 10 concentrations in duplicate and treatment continued for 96 h. After 96 h treatment of cells, 20 μL/well CellTiter-Blue® reagent was added. Following an incubation period of up to four hours, fluorescence (FU) was measured by using the Enspire Multimode Plate Reader (excitation λ=531 nm, emission λ=615 nm).
(§5) For calculations, the mean values of duplicate/quadruplicate (untreated control) data were used. Sigmoidal concentration-response curves were fitted to the data points (T/C values) obtained for each cell line using 4 parameter non-linear curve fit.

[3] = system: RXF Caki-1; assay: as above; format: cell-based; details: Homo sapiens, Caki-1, 2D, 96 h treatment
Procedure: as §1, §2, §3, §4, §5

[4] = system: RXF SN12C; assay: as above; format: cell-based; details: Homo sapiens, 96 h treatment
Procedure: as §1, §2, §3, §4, §5

[5] = system: RXF A-498; assay: as above; format: cell-based; details: Homo sapiens, A498, A-498, 2D, 96 h treatment
Procedure: as §1, §2, §3, §4, §5

[6] = system: RXF 786-0; assay: as above; format: cell-based; details: Homo sapiens, 786-O, 96 h treatment
Procedure: as §1, §2, §3, §4, §5

[7] = system: RXF 393L; assay: as above; format: cell-based; details: Homo sapiens, 96 h treatment
Procedure: as §1, §2, §3, §4, §5

[8] = system: RXF 1220L; assay: as above; format: cell-based; details: Homo sapiens, 96 h treatment
Procedure: as §1, §2, §3, §4, §5

[9] = system: RXF 1781L; assay: as above; format: cell-based; details: Homo sapiens, 96 h treatment
Procedure: as §1, §2, §3, §4, §5

[10] = system: RXF ACHN; assay: as above; format: cell-based; details: Homo sapiens, 96 h treatment
Procedure: as §1, §2, §3, §4, §5

[11] = system: RXF 486L; assay: as above; format: cell-based; details: Homo sapiens, 96 h treatment
Procedure: as §1, §2, §3, §4, §5

[12] = system: A498 cells; assay: In vivo animal efficacy study, subcutaneous A498 tumor fragments; parameters: species or system female athymic nude mice
Procedure: 10 Healthy female athymic nude mice were recruited for the donor cell inoculation. Animals were subcutaneously injected at flank region with 10 million A498 cells suspended in 200 μl of media and matrigel. Animals were monitored for solid tumor growth. […] Tumors were fragmented in to ˜30 mg size. […] [table] The tumor sizes were measured weekly twice from the date of tumor appearance till the end of the experiment. Tumor size was measured by digital vernier caliper (MITUTOYO) by measuring length (L=longest axis) and width (W=shortest axis). Tumor Volume was calculated using the formula: […] Form the tumor volume data mean tumor volume and % tumor growth inhibition (% TGI) were calculated (SEM=standard error of mean).

[13] = Ketorolac 5 mg/kg p.o. q.d. × 21 (G3), day 1
[14] = Ketorolac 5 mg/kg p.o. q.d. × 21 (G3), day 6
[15] = Ketorolac 5 mg/kg p.o. q.d. × 21 (G3), day 9
[16] = Ketorolac 5 mg/kg p.o. q.d. × 21 (G3), day 13
[17] = Ketorolac 5 mg/kg p.o. q.d. × 21 (G3), day 16
[18] = Ketorolac 10 mg/kg p.o. q.d. × 21 (G4), day 1
[19] = Ketorolac 10 mg/kg p.o. q.d. × 21 (G4), day 6
[20] = Ketorolac 10 mg/kg p.o. q.d. × 21 (G4), day 9
[21] = Ketorolac 10 mg/kg p.o. q.d. × 21 (G4), day 13
[22] = Ketorolac 10 mg/kg p.o. q.d. × 21 (G4), day 16

## O=C(c1ccccc1)c1ccc2n1CCC2C(=O)O (racemic) [Ketorolac, (±)-5-benzoyl-2,3-dihydro-1H-pyrrolizine-1-carboxylic acid]
[1]; read-out: Absolute IC50, geometric mean
  IC50: 3.24 mM
[1]; read-out: Relative IC50, geometric mean
  IC50: 3.76 mM
[1]; both runs, all cell lines tested
  Activity in all cell lines tested (concentration-effect curves): Concentration-dependent activity
[2]; read-out: Absolute IC50
  IC50: 2.4 mM
[2]; read-out: Relative IC50
  IC50: 2.67 mM
[3]; read-out: Absolute IC50
  IC50: 2.79 mM
[3]; read-out: Relative IC50
  IC50: 3.44 mM
[4]; read-out: Absolute IC50
  IC50: 2.44 mM
[4]; read-out: Relative IC50
  IC50: 2.82 mM
[5]; read-out: Absolute IC50
  IC50: 4.75 mM
[5]; read-out: Relative IC50
  IC50: 5.65 mM
[6]; read-out: Absolute IC50
  IC50: 3.25 mM
[6]; read-out: Relative IC50
  IC50: 3.85 mM
[7]; read-out: Absolute IC50
  IC50: 3.14 mM
[7]; read-out: Relative IC50
  IC50: 3.75 mM
[8]; read-out: Absolute IC50
  IC50: 4.77 mM
[8]; read-out: Relative IC50
  IC50: 5.36 mM
[9]; read-out: Absolute IC50
  IC50: 3.82 mM
[9]; read-out: Relative IC50
  IC50: 4.44 mM
[10]; read-out: Absolute IC50
  IC50: 2.8 mM
[10]; read-out: Relative IC50
  IC50: 3.39 mM
[11]; read-out: Absolute IC50
  IC50: 3.15 mM
[11]; read-out: Relative IC50
  IC50: 3.29 mM
[12]; [13]
  Mean Tumor Volume: 145.65 mm^3
  Tumor Growth Inhibition (% TGI): 1.29%
[12]; [14]
  Mean Tumor Volume: 174.13 mm^3
  Tumor Growth Inhibition (% TGI): 47.54%
[12]; [15]
  Mean Tumor Volume: 297.42 mm^3
  Tumor Growth Inhibition (% TGI): 35.87%
[12]; [16]
  Mean Tumor Volume: 460.01 mm^3
  Tumor Growth Inhibition (% TGI): 25.45%
[12]; [17]
  Mean Tumor Volume: 559.69 mm^3
  Tumor Growth Inhibition (% TGI): 41.77%
[12]; Ketorolac 5 mg/kg p.o. q.d. × 21 (G3), day 20
  Mean Tumor Volume: 626.62 mm^3
[12]; [18]
  Mean Tumor Volume: 145.79 mm^3
  Tumor Growth Inhibition (% TGI): 1.20%
[12]; [19]
  Mean Tumor Volume: 168.10 mm^3
  Tumor Growth Inhibition (% TGI): 49.36%
[12]; [20]
  Mean Tumor Volume: 223.78 mm^3
  Tumor Growth Inhibition (% TGI): 51.75%
[12]; [21]
  Mean Tumor Volume: 215.58 mm^3
  Tumor Growth Inhibition (% TGI): 65.06%
[12]; [22]
  Mean Tumor Volume: 300.44 mm^3
  Tumor Growth Inhibition (% TGI): 68.75%
[12]; Ketorolac 10 mg/kg p.o. q.d. × 21 (G4), day 20
  Mean Tumor Volume: 336.27 mm^3

Source: US10391080B2, “Ketorolac for the treatment of cancer” (Cipla Limited, priority 2016, dated 2019)
